Tests used:
[1] = system: ligninase; test: Oxidation of dyes by P. chrysosporium ligninase (crude preparation); format: biochemical, Phanerochaete chrysosporium; details: crude enzyme, conditions specific for ligninase
Description: The peroxidase assay was carried out using a composition having a final volume of 1.0 ml. The reaction mixture contained 250 μl of 100 mM HEPES buffer (pH 8), 500 μl of 10 mM 2,4-dichlorophenol, 100 μl of 1 mM aminoantipyrine, 50 μl enzyme preparation and 100 μl 50 mM H2 O2. The reaction was initiated by the addition of hydrogen peroxide at 37° C. One unit of peroxidase activity was expressed as the amount of enzyme required for an increase of one absorbance-unit-per-minute at 510 nm. Assays of manganese peroxidase and of ligninase from P. chrysosporium were carried out as previously described by Paszczynski et al in "Manganese peroxidase of Phanerochaete chrysosporium: Purification," Methods Enzymol. 161:264-270, incorporated herein by reference. […] Biophys., 1986, 44:750-765. Preparation and assay of ligninase and manganese peroxidase from these P. chrysosporium cultures were carried out as previously reported by Paszczynski, et al., Methods Enzymol., 1988, 161:264-270. […] Purification," Methods Enzymol. 161:264-270. […] Cycle time was 30 seconds with the last measure after 15 minutes. […] The reaction conditions were the same as for acid yellow 9. No decolorization of the synthesized dyes by ligninase was detected.

[2] = system: Mn(II)-peroxidase; test: Oxidation of dyes by P. chrysosporium Mn(II)-peroxidase; format: biochemical, Phanerochaete chrysosporium; details: crude enzyme, conditions specific for Mn(II)-peroxidase
Description: The peroxidase assay was carried out using a composition having a final volume of 1.0 ml. The reaction mixture contained 250 μl of 100 mM HEPES buffer (pH 8), 500 μl of 10 mM 2,4-dichlorophenol, 100 μl of 1 mM aminoantipyrine, 50 μl enzyme preparation and 100 μl 50 mM H2 O2. The reaction was initiated by the addition of hydrogen peroxide at 37° C. One unit of peroxidase activity was expressed as the amount of enzyme required for an increase of one absorbance-unit-per-minute at 510 nm. Assays of manganese peroxidase and of ligninase from P. chrysosporium were carried out as previously described by Paszczynski et al in "Manganese peroxidase of Phanerochaete chrysosporium: Purification," Methods Enzymol. 161:264-270, incorporated herein by reference. […] Biophys., 1986, 44:750-765. Preparation and assay of ligninase and manganese peroxidase from these P. chrysosporium cultures were carried out as previously reported by Paszczynski, et al., Methods Enzymol., 1988, 161:264-270. […] Purification," Methods Enzymol. 161:264-270. […] Cycle time was 10 seconds, with the last measure after three minutes of incubation.

[3] = molecular target: T1, horseradish peroxidase type II (Armoracia rusticana, UniProt P00433); test: Oxidation of azo dyes by horseradish peroxidase preparation; format: biochemical; details: pH 8, 37° C., H2O2
T1 sequence (P00433 31-338): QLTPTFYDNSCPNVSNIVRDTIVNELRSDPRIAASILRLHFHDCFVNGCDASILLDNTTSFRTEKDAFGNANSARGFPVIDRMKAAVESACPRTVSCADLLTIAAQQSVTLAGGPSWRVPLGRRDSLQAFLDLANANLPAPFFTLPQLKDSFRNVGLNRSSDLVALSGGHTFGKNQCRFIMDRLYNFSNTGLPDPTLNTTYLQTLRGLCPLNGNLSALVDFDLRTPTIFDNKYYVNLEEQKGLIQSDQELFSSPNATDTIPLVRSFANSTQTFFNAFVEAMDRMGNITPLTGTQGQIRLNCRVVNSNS
Description: The reaction was started with the addition of 100 μl of 50 mM H2 O2 and was followed for 1 min at 37° C. Controls were run with no addition of H2 O2 or with the addition of the hemeperoxidase inhibitor KCN (final concentration 25 μM).

[4] = system: S. chromofuscus A11 extracellular peroxidase; test: Oxidation of azo dyes by S. chromofuscus A11 crude enzyme preparation; format: biochemical, Streptomyces chromofuscus A11; details: pH 8, 37° C., H2O2
Description: Environ. Microbiol., 1988, 54:3057-3063. […] Microbiol. Biotechnol., 34:661-667. Incubation took place at 37° C. with shaking at 250 rpm. The culture supernatant was collected after 48 h incubation, and vacuum-filtered through Whatman no. 1 filter paper. The filtrate was concentrated approximately 40- to 50-fold by ultrafiltration through an Amicon ultrafiltration stirred cell (series no. 8000, Amicon Corp.) with a disc PM-10 filter (diameter, 76 mm). Protein in the concentrated filtrate was then precipitated from solution with 80% ammonium sulfate. The precipitate was collected by centrifugation (15 min, 10,000 rpm). The pellet was resuspended in 10 ml of 20 mM HEPES buffer (pH 8) and dialyzed overnight against the same buffer at 4° C. These preparations were then stored in 1-ml aliquots at -20° C. until used. Before using, the preparation was filtered through a NAP-25 Sephadex G-25 disposable column (Pharmacia) in order to separate a yellowish protein fraction from a pink low-molecular-weight fraction. The yellowish fraction was used as the source of enzyme. […] The reaction was started with the addition of 100 μl of 50 mM H2 O2 and was followed for 1 min at 37° C. Controls were run with no addition of H2 O2 or with the addition of the hemeperoxidase inhibitor KCN (final concentration 25 μM).

[5] = system: Phanerochaete chrysosporium; test: Substrate removal / decolorization by P. chrysosporium culture; format: cell-based; details: for % Decolorization, P. chrysosporium: 14 days
Description: Environ. Microbiol., 1981, 42:290-296), with the addition of 75 mg adenine (6-aminopurine) and 27 mg L-phenylalanine-per-liter. This addition accelerated the growth of the fungus without inhibiting ligninase activity. […] […] Cultures were incubated at 37° C. for 7 to 15 days with shaking (250 rpm). Solid agar media were also employed.

[6] = beginning concentration 100 ppm
[7] = beginning concentration 150 ppm
[8] = beginning concentration 200 ppm
[9] = beginning concentration 300 ppm

| SMILES | Oxidation rate of azo dyes, P. chrysosporium Ligninase [1] [μmoles per minute per ml] | Oxidation rate of azo dyes, P. chrysosporium Mn-peroxidase [2] [μmoles per minute per ml] | Oxidation rate of azo dyes, Horseradish peroxidase [3] [μmoles per minute per ml] | Oxidation rate of azo dyes, S. chromofuscus peroxidase [4] [μmoles per minute per ml] | % Decolorization, P. chrysosporium ([5]; initial concn 150 ppm) [%] | % Decolorization, P. chrysosporium ([5]; initial concn 300 ppm) [%] | Concentration of substrate after ten days cultivation with P. chrysosporium [5, 6] [ppm] | Concentration of substrate after ten days cultivation with P. chrysosporium [5, 7] [ppm] | Concentration of substrate after ten days cultivation with P. chrysosporium [5, 8] [ppm] | Concentration of substrate after ten days cultivation with P. chrysosporium [5, 9] [ppm] |
| --- | --- | --- | --- | --- | --- | --- | --- | --- | --- | --- |
| O=S(=O)(O)c1ccc(N=Nc2cc(F)c(O)c(F)c2)cc1 [compound 12] | 11.61 | 0.00 | 0.17 | 0.15 | 86 | 93 | 2.368 | 44.227 | 6.160 | 198.240 |
| O=S(=O)(O)c1ccc2c(N=Nc3ccccc3)c(O)ccc2c1 [compound 19] | 2.06 | 0.10 | 0.08 | 0.35 | 93 | 87 |  | 2.938 |  | 252.592 |
| CCc1ccc(O)c(N=Nc2ccc(S(=O)(=O)O)cc2)c1 [compound 9] | 1.27 | 0.07 | 0.20 | 0.35 | 89 | 86 | 81.911 | 109.822 | 32.044 | 153.733 |
| Cc1cc(O)c(N=Nc2ccc(S(=O)(=O)O)cc2)cc1C [compound 7] | 1.35 | 0.11 | 0.34 | 0.19 | 81 | 55 | 62.893 | 41.044 | 10.200 | 246.044 |

More lines, main results first:

| Oxidation rate of azo dyes, P. chrysosporium Ligninase [1] [μmoles per minute per ml] | Oxidation rate of azo dyes, P. chrysosporium Mn-peroxidase [2] [μmoles per minute per ml] | Oxidation rate of azo dyes, Horseradish peroxidase [3] [μmoles per minute per ml] | Oxidation rate of azo dyes, S. chromofuscus peroxidase [4] [μmoles per minute per ml] | % Decolorization, P. chrysosporium ([5]; initial concn 150 ppm) [%] | % Decolorization, P. chrysosporium ([5]; initial concn 300 ppm) [%] | SMILES | Concentration of substrate after ten days cultivation with P. chrysosporium [5, 6] [ppm] | Concentration of substrate after ten days cultivation with P. chrysosporium [5, 7] [ppm] | Concentration of substrate after ten days cultivation with P. chrysosporium [5, 8] [ppm] | Concentration of substrate after ten days cultivation with P. chrysosporium [5, 9] [ppm] |
| --- | --- | --- | --- | --- | --- | --- | --- | --- | --- | --- |
| 0.45 | 0.02 | 0.47 | 0.42 | 72 | 18 | O=S(=O)(O)c1ccc(N=Nc2ccc(O)cc2)cc1 [compound 6] | 12.909 | 14.003 | 33.309 | 39.326 |
| 0.49 | 0.32 | 0.07 | 0.14 | 27 | 49 | Cc1ccc(O)c(N=Nc2ccc(S(=O)(=O)O)cc2)c1 [compound 8] | 16.079 | 28.401 | 29.704 | 135.680 |
| 0.32 | 0.15 | 0.07 | 0.10 | 93 | 94 | CN(C)c1ccc(N=Nc2ccc(S(=O)(=O)O)cc2)cc1 [compound 14] | 4.411 | 11.843 | 15.529 | 36.800 |
| 0.25 | 0.00 | 0.06 | 0.06 | 61 | 55 | COc1ccc(N=Nc2ccc(S(=O)(=O)O)cc2)cc1 [compound 16] | 67.801 | 92.683 | 179.300 | 219.079 |
| 1.18 | 0.47 | 0.52 | 0.09 |  |  | O=S(=O)(O)c1ccc(N=Nc2c(O)ccc3ccccc23)cc1 [compound 31] |  |  |  |  |
| 1.58 | 0.59 | 0.40 | 0.00 | 85 | 80 | Nc1ccc(N=Nc2ccc(S(=O)(=O)O)cc2)cc1 [compound 30] |  |  |  |  |

— US5618726A, “Biodegradable azo dyes” (priority 1994, dated 1997)
